Structures can show the parent of a compound that is named as a salt.
These compounds were tested against human sigma 1 receptor (Homo sapiens (Human), UniProt Q99720) (assay: Human Sigma 1 Receptor Radioligand Assay). Conditions: transfected HEK-293 membranes, 5 nM [3H](+)-pentazocine as radioligand, 37° C., 120 minutes.
Format: binding
Description: Human Sigma 1 Receptor Radioligand Assay
To investigate binding properties of sigma 1 receptor ligands to human sigma 1 receptor, transfected HEK-293 membranes and [^3H](+)-pentazocine (Perkin Elmer, NET-1056), as the radioligand, were used. The assay was carried out with 7 μg of membrane suspension, 5 nM of [^3H](+)-pentazocine in either absence or presence of either buffer or 10 μM Haloperidol for total and non-specific binding, respectively. Binding buffer contained Tris-HCl 50 mM at pH 8. Plates were incubated at 37° C. for 120 minutes. After the incubation period, the reaction mix was then transferred to MultiScreen HTS, FC plates (Millipore), filtered and plates were washed 3 times with ice-cold 10 mM TrisHCL (pH7.4). Filters were dried and counted at approximately 40% efficiency in a MicroBeta scintillation counter (Perkin-Elmer) using EcoScint liquid scintillation cocktail.

Sequence of human sigma 1 receptor (Q99720 whole entry): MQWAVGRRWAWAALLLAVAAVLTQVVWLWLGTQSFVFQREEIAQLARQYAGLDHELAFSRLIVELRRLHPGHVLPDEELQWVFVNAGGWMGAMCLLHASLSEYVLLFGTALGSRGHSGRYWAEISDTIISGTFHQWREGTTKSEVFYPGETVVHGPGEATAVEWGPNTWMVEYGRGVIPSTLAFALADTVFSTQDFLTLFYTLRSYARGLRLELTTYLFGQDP

**Q.** With `CC(C(=O)N1CCn2c(cc3ccccc32)C1)N1CCN(C)CC1` (stereo not shown) [Example 1, 1-(3,4-dihydropyrazino[1,2-a]indol-2(1H)-yl)-2-(4-methylpiperazin-1-yl)propan-1-one] as the compound, how does the Ki read?
**A.** 105 nM

**Q.** How did the Ki turn out when `CN1CCN(C(C)(C)C(=O)N2CCn3c(cc4ccccc43)C2)CC1` [Example 2, 1-(3,4-dihydropyrazino[1,2-a]indol-2(1H)-yl)-2-methyl-2-(4-methylpiperazin-1-yl)propan-1-one] was run?
**A.** 96.1 nM

**Q.** For `CC(CC(=O)N1CCn2c(cc3ccccc32)C1)N1CCN(C)CC1` (stereo not shown) [Example 3, 1-(3,4-dihydropyrazino[1,2-a]indol-2(1H)-yl)-3-(4-methylpiperazin-1-yl)butan-1-one], which Ki is on record?
**A.** 68.2 nM

**Q.** Which Ki does the source give for `O=C(CN1CCCCCC1)N1CCn2c(cc3ccccc32)C1` [Example 4, 2-(azepan-1-yl)-1-(3,4-dihydropyrazino[1,2-a]indol-2(1H)-yl)ethanone hydrochloride] here?
**A.** 10.2 nM

**Q.** Which Ki does the source give for `O=C(CN1CCCCC1)N1CCn2c(cc3ccccc32)C1` [Example 5, 1-(3,4-dihydropyrazino[1,2-a]indol-2(1H)-yl)-2-(piperidin-1-yl)ethanone hydrochloride] here?
**A.** 39.8 nM

**Q.** Which Ki does the source give for `O=C(CN1CCC(Cc2ccccc2)CC1)N1CCn2c(cc3ccccc32)C1` [Example 6, 2-(4-benzylpiperidin-1-yl)-1-(3,4-dihydropyrazino[1,2-a]indol-2(1H)-yl)ethanone hydrochloride] here?
**A.** 14.4 nM

**Q.** For `CC(C(=O)N1CCn2c(cc3ccccc32)C1)N1CCCCCC1` (stereo not shown) [Example 7, 2-(azepan-1-yl)-1-(3,4-dihydropyrazino[1,2-a]indol-2(1H)-yl)propan-1-one], which Ki is on record?
**A.** 24.8 nM

**Q.** Which Ki does the source give for `CC(C(=O)N1CCn2c(cc3ccccc32)C1)N1CCCCC1` (stereo not shown) [Example 9, 1-(3,4-dihydropyrazino[1,2-a]indol-2(1H)-yl)-2-(piperidin-1-yl)propan-1-one] here?
**A.** 129 nM

**Q.** Which Ki does the source give for `CC(C(=O)N1CCn2c(cc3ccccc32)C1)N1CCC(Cc2ccccc2)CC1` (stereo not shown) [Example 10, 2-(4-benzylpiperidin-1-yl)-1-(3,4-dihydropyrazino[1,2-a]indol-2(1H)-yl)propan-1-one] here?
**A.** 25 nM

**Q.** With `CN(C)CCCC(=O)N1CCn2c(cc3ccccc32)C1` [Example 11, 1-(3,4-dihydropyrazino[1,2-a]indol-2(1H)-yl)-4-(dimethylamino)butan-1-one] as the compound, how does the Ki read?
**A.** 60.8 nM

**Q.** For `O=C(CN1CCCCCC1)N1CCn2c(cc3cc(F)ccc32)C1` [Example 12, 2-(azepan-1-yl)-1-(8-fluoro-3,4-dihydropyrazino[1,2-a]indol-2(1H)-yl)ethanone], which Ki is on record?
**A.** 14.6 nM

**Q.** Which Ki does the source give for `Cc1ccc2c(c1)cc1n2CCN(C(=O)C(C)N2CCCCCC2)C1` (stereo not shown) [Example 13, 2-(azepan-1-yl)-1-(8-methyl-3,4-dihydropyrazino[1,2-a]indol-2(1H)-yl)propan-1-one] here?
**A.** 69.7 nM

**Q.** `Cc1c2n(c3ccccc13)CCN(C(=O)CN1CCCCC1)C2` [Example 14, 1-(10-methyl-3,4-dihydropyrazino[1,2-a]indol-2(1H)-yl)-2-(piperidin-1-yl)ethanone] was tested. Which Ki did it give?
**A.** 24 nM

**Q.** Which Ki does the source give for `Cc1c2n(c3ccccc13)CCN(C(=O)CN1CCC(Cc3ccccc3)CC1)C2` [Example 15, 2-(4-benzylpiperidin-1-yl)-1-(10-methyl-3,4-dihydropyrazino[1,2-a]indol-2(1H)-yl)ethanone] here?
**A.** 26.2 nM

**Q.** How did the Ki turn out when `O=C(CCCN1CCCCC1)N1CCn2c(cc3cc(F)ccc32)C1` [Example 16, 1-(8-fluoro-3,4-dihydropyrazino[1,2-a]indol-2(1H)-yl)-4-(piperidin-1-yl)butan-1-one] was run?
**A.** 22.2 nM

**Q.** With `O=C(CCN1CCCCCC1)N1CCn2c(cc3ccccc32)C1` [Example 17, 3-(azepan-1-yl)-1-(3,4-dihydropyrazino[1,2-a]indol-2(1H)-yl)propan-1-one] as the compound, how does the Ki read?
**A.** 10.9 nM

**Q.** How did the Ki turn out when `C[C@@H](C(=O)N1CCn2c(cc3ccccc32)C1)N1CCN(C)CC1` [Example 19, (S)-1-(3,4-dihydropyrazino[1,2-a]indol-2(1H)-yl)-2-(4-methylpiperazin-1-yl)propan-1-one] was run?
**A.** 55.9 nM

**Q.** With `O=C(CCCN1CCCCC1)N1CCn2c(cc3ccccc32)C1` [Example 20, 1-(3,4-dihydropyrazino[1,2-a]indol-2(1H)-yl)-4-(piperidin-1-yl)butan-1-one] as the compound, how does the Ki read?
**A.** 28.8 nM

**Q.** `O=C(CCCN1CCCCCC1)N1CCn2c(cc3cc(F)ccc32)C1` [Example 21, 4-(azepan-1-yl)-1-(8-fluoro-3,4-dihydropyrazino[1,2-a]indol-2(1H)-yl)butan-1-one] was tested. Which Ki did it give?
**A.** 21.9 nM

**Q.** `CN1CCN(CCCC(=O)N2CCn3c(cc4ccccc43)C2)CC1` [Example 22, 1-(3,4-dihydropyrazino[1,2-a]indol-2(1H)-yl)-4-(4-methylpiperazin-1-yl)butan-1-one] was tested. Which Ki did it give?
**A.** 292 nM

**Q.** `CC(C(=O)N1CCn2c(cc3ccccc32)C1)N1CCN(C2CCCCC2)CC1` (stereo not shown) [Example 24, 2-(4-cyclohexylpiperazin-1-yl)-1-(3,4-dihydropyrazino[1,2-a]indol-2(1H)-yl)propan-1-one] was tested. Which Ki did it give?
**A.** 37.6 nM

**Q.** Which Ki does the source give for `CC(C(=O)N1CCN2c3ccccc3CC2C1)N1CCN(C)CC1` (stereo not shown) [Example 25, 2-(4-methylpiperazin-1-yl)-1-(3,4,10,10a-tetrahydropyrazino[1,2-a]indol-2(1H)-yl)propan-1-one] here?
**A.** 118 nM

**Q.** How did the Ki turn out when `CC(C(=O)N1CCn2c(cc3cc(F)ccc32)C1)N1CCN(C)CC1` (stereo not shown) [Example 26, 1-(8-fluoro-3,4-dihydropyrazino[1,2-a]indol-2(1H)-yl)-2-(4-methylpiperazin-1-yl)propan-1-one] was run?
**A.** 123 nM

**Q.** Which Ki does the source give for `CC(C(=O)N1CCn2c(cc3cc(F)ccc32)C1)N1CCN(C2CCCCC2)CC1` (stereo not shown) [Example 27, 2-(4-cyclohexylpiperazin-1-yl)-1-(8-fluoro-3,4-dihydropyrazino[1,2-a]indol-2(1H)-yl)propan-1-one] here?
**A.** 25.6 nM

**Q.** How did the Ki turn out when `CCN1CCN(C(C)C(=O)N2CCn3c(cc4cc(F)ccc43)C2)CC1` (stereo not shown) [Example 29, 2-(4-ethylpiperazin-1-yl)-1-(8-fluoro-3,4-dihydropyrazino[1,2-a]indol-2(1H)-yl)propan-1-one] was run?
**A.** 125 nM

**Q.** With `CCN(CC)CCNC(C)C(=O)N1CCn2c(cc3ccccc32)C1` (stereo not shown) [Example 30, 2-(2-(diethylamino)ethylamino)-1-(3,4-dihydropyrazino[1,2-a]indol-2(1H)-yl)propan-1-one] as the compound, how does the Ki read?
**A.** 241 nM

**Q.** `C[C@H](C(=O)N1CCN2c3ccccc3C[C@H]2C1)N1CCN(C)CC1` [Example 32, (R)-2-(4-methylpiperazin-1-yl)-1-((S)-3,4,10,10a-tetrahydropyrazino[1,2-a]indol-2(1H)-yl)propan-1-one] was tested. Which Ki did it give?
**A.** 234 nM

**Q.** For `C[C@@H](C(=O)N1CCN2c3ccccc3C[C@@H]2C1)N1CCN(C)CC1` [Example 33, (S)-2-(4-methylpiperazin-1-yl)-1-((R)-3,4,10,10a-tetrahydropyrazino[1,2-a]indol-2(1H)-yl)propan-1-one], which Ki is on record?
**A.** 84.3 nM

**Q.** Which Ki does the source give for `C[C@@H](C(=O)N1CCN2c3ccccc3C[C@H]2C1)N1CCN(C)CC1` [Example 34, (S)-2-(4-methylpiperazin-1-yl)-1-((S)-3,4,10,10a-tetrahydropyrazino[1,2-a]indol-2(1H)-yl)propan-1-one] here?
**A.** 56.5 nM

**Q.** How did the Ki turn out when `CC(C(=O)N1CCn2c(cc3ccccc32)C1)N1CCC(N2CCCCC2)CC1` (stereo not shown) [Example 37, 2-(1,4′-bipiperidin-1′-yl)-1-(3,4-dihydropyrazino[1,2-a]indol-2(1H)-yl)propan-1-one] was run?
**A.** 500 nM

Same assay, conditions: transfected HEK-293 membranes, 5 nM [3H](+)-pentazocine as radioligand, 37° C., 120 minutes; maleate

**Q.** For `CC(C(=O)N1CCn2c(cc3ccccc32)C1)N1CCCCCC1` (stereo not shown) [Example 8, 2-(azepan-1-yl)-1-(3,4-dihydropyrazino[1,2-a]indol-2(1H)-yl)propan-1-one maleate], which Ki is on record?
**A.** 29.6 nM

Reference: patent US9963453B2, “Substituted pyrazino[1,2-a]indoles as sigma receptor activity modulators” (LABORATORIOS DEL DR. ESTEVE S.A., priority 2013, dated 2018)
